From patent US12116388B2, “Amylin receptor agonists” (Novo Nordisk A/S, priority 2022, dated 2024)
Starred links: 1 amine or outer side, 2 acyl side, 3 side chain; linkers in the order of their positions; H or OH if unused. Residues, ends and D or L forms follow the SMILES beside them. *: point of attachment. C20 diacid = O=C(O)CCCCCCCCCCCCCCCCCCC(=O)*; C18 diacid = O=C(O)CCCCCCCCCCCCCCCCC(=O)*; γGlu = O=C(O)[C@H](CCC(=O)[*:2])N[*:1]

Tests used:
[1] = molecular target: T1, human amylin receptor (hAMYR3) (Homo sapiens, UniProt O60896+P30988); experiment: Human amylin receptor (hAMYR3) in vitro potency assay, CRE-luciferase reporter in BHK cells; format: cell-based; conditions: BHK hAMYR3/CRE-Luc cells, 3 hours incubation, assay buffer with 1% ovalbumin
T1 construct: host or cells: BHK (Baby Hamster Kidney), Hollex-1 cell line further transfected with RAMP3
T1 sequence (O60896 24-148, one chain of several): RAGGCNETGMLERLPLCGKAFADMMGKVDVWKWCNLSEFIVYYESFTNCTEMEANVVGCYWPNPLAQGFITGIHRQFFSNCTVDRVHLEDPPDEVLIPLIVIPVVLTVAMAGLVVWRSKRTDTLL
In short: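 Luminescence from a CRE-driven luciferase reporter reflects cAMP-mediated receptor activation. Peptides were serially diluted (7 concentrations, 7-fold steps, typically starting near 10 nM) in buffer with 1% ovalbumin and applied for 3 h at 37 °C to BHK cells co-expressing calcitonin receptor (a) and RAMP3.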

[2] = molecular target: T2, human calcitonin receptor (hCTR) (Homo sapiens, UniProt P30988); experiment: Human calcitonin receptor (hCTR) in vitro potency assay, CRE-luciferase reporter in BHK cells; format: cell-based; conditions: BHK hCTR/CRE-Luc cells, 3 hours incubation, assay buffer with 1% ovalbumin; read-out: hCalcR potency, EC50
T2 construct: host or cells: BHK (Baby Hamster Kidney), Hollex-1 cell line
T2 sequence (P30988 25-474): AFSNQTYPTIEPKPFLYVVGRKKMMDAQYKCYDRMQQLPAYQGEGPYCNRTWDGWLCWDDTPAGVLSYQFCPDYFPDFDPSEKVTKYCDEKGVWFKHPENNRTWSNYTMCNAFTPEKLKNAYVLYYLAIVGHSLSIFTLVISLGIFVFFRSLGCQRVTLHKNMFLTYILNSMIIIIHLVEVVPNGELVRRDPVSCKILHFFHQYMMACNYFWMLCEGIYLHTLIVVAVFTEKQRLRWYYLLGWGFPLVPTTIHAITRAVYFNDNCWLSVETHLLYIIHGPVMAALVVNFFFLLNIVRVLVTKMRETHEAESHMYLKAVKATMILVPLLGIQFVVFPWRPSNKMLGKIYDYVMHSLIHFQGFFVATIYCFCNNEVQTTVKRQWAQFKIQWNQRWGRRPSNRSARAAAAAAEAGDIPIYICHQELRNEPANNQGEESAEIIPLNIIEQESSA
In short: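 Luciferase signal from a CRE reporter served as the cAMP read-out after 3 h, 37 °C exposure to compound. Cells were stably transfected BHK expressing hCTR, and the buffer was phenol-red-free DMEM with 10 mM HEPES and 1% ovalbumin. Compounds were tested as 7-point, 7-fold dilutions, often from about 10 nM.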

| SMILES | EC50 [1] | EC50 [2] |
| --- | --- | --- |
| CC[C@H](C)[C@H](NC(=O)[C@@H]1CCCN1C(=O)CNC(=O)[C@H](Cc1ccccc1)NC(=O)[C@H](Cc1c[nH]cn1)NC(=O)[C@H](Cc1c[nH]cn1)NC(=O)[C@H](CC(C)C)NC(=O)[C@H](Cc1ccccc1)NC(=O)[C@H](CCC(=O)O)NC(=O)[C@H](C)NC(=O)[C@H](CC(C)C)NC(=O)[C@H](CCCNC(=N)N)NC(=O)[C@H](CCC(N)=O)NC(=O)[C@@H](NC(=O)[C@H](CCC(N)=O)NC(=O)[C@H](C)NC(=O)[C@@H](NC(=O)[C@H](CO)NC(=O)[C@H](CC(C)C)NC(=O)[C@H](Cc1c[nH]cn1)NC(=O)[C@H](CO)NC(=O)[C@H](C)NC(=O)CC[C@H](NC(=O)CCCCCCCCCCCCCCCCCCC(=O)O)C(=O)O)[C@@H](C)O)[C@@H](C)O)C(=O)N[C@@H](CC(C)C)C(=O)N1CCC[C@H]1C(=O)N1CCC[C@H]1C(=O)N[C@H](C(=O)N[C@@H](CC(=O)O)C(=O)N[C@H](C(=O)NCC(=O)N[C@@H](CO)C(=O)N[C@@H](CCC(=O)O)C(=O)N[C@H](C(=O)N1CCC[C@H]1C(N)=O)[C@@H](C)O)C(C)C)[C@@H](C)O [Compound 4, N^1-[(4S)-4-carboxy-4-(19-carboxynonadecanoylamino)butanoyl]-[Ala1,Ser2,His3,Leu4,Ser5,Ala7,Gln8,Glu14,His17,Pro25,Pro28,Pro29,Asp31,Glu35,Pro37],des-(19-22)-human amylin] ({C20 diacid-γGlu}-ASHLSTAQTQRLAEFLHHFGPILPPTDVGSETP-NH2) | 1.12 pM | 1.44 pM |
| CC[C@H](C)[C@H](NC(=O)[C@H](C)NC(=O)CNC(=O)[C@H](Cc1ccccc1)NC(=O)[C@@H]1CCCN1C(=O)[C@H](CC(=O)O)NC(=O)[C@H](CO)NC(=O)[C@H](CO)NC(=O)[C@H](Cc1c[nH]cn1)NC(=O)[C@H](Cc1c[nH]cn1)NC(=O)[C@H](CC(C)C)NC(=O)[C@H](Cc1ccccc1)NC(=O)[C@H](CCC(=O)O)NC(=O)[C@H](C)NC(=O)[C@H](CC(C)C)NC(=O)[C@H](CCCNC(=N)N)NC(=O)[C@H](CCC(N)=O)NC(=O)[C@@H](NC(=O)[C@H](CCC(N)=O)NC(=O)[C@H](C)NC(=O)[C@@H](NC(=O)[C@H](CO)NC(=O)[C@H](CC(C)C)NC(=O)[C@H](Cc1c[nH]cn1)NC(=O)[C@H](CO)NC(=O)[C@H](C)NC(=O)CC[C@H](NC(=O)CCCCCCCCCCCCCCCCC(=O)O)C(=O)O)[C@@H](C)O)[C@@H](C)O)C(=O)N1CCC[C@H]1C(=O)N[C@@H](CO)C(=O)N[C@@H](CO)C(=O)N[C@H](C(=O)N[C@@H](CC(=O)O)C(=O)N[C@H](C(=O)NCC(=O)N1CCC[C@H]1C(=O)N[C@@H](CC(=O)O)C(=O)N[C@H](C(=O)N1CCC[C@H]1C(N)=O)[C@@H](C)O)C(C)C)[C@@H](C)O [Compound 8, N^1-[(4S)-4-carboxy-4-(17-carboxyheptadecanoylamino)butanoyl]-[Ala1,Ser2,His3,Leu4,Ser5,Ala7,Gln8,Glu14,His17,Asp21,Pro22,Pro27,Asp31,Pro34,Asp35,Pro37]-human amylin] ({C18 diacid-γGlu}-ASHLSTAQTQRLAEFLHHSSDPFGAIPSSTDVGPDTP-NH2) | 1.5 pM | 1.44 pM |
| CC[C@H](C)[C@H](NC(=O)[C@H](C)NC(=O)CNC(=O)[C@H](Cc1ccccc1)NC(=O)[C@@H]1CCCN1C(=O)[C@H](CC(=O)O)NC(=O)[C@H](CO)NC(=O)[C@H](CO)NC(=O)[C@H](Cc1c[nH]cn1)NC(=O)[C@H](Cc1c[nH]cn1)NC(=O)[C@H](CC(C)C)NC(=O)[C@H](Cc1ccccc1)NC(=O)[C@H](CCC(=O)O)NC(=O)[C@H](C)NC(=O)[C@H](CC(C)C)NC(=O)[C@H](CCCNC(=N)N)NC(=O)[C@H](CCC(N)=O)NC(=O)[C@@H](NC(=O)[C@H](CCC(N)=O)NC(=O)[C@H](C)NC(=O)[C@@H](NC(=O)[C@H](CO)NC(=O)[C@H](CC(C)C)NC(=O)[C@H](CO)NC(=O)CNC(=O)[C@H](C)NC(=O)CC[C@H](NC(=O)CCCCCCCCCCCCCCCCC(=O)O)C(=O)O)[C@@H](C)O)[C@@H](C)O)C(=O)N1CCC[C@H]1C(=O)N[C@@H](CO)C(=O)N[C@@H](CO)C(=O)N[C@H](C(=O)N[C@@H](CC(=O)O)C(=O)N[C@H](C(=O)NCC(=O)N1CCC[C@H]1C(=O)N[C@@H](CC(=O)O)C(=O)N[C@H](C(=O)N1CCC[C@H]1C(N)=O)[C@@H](C)O)C(C)C)[C@@H](C)O [Compound 10, N^1-[(4S)-4-carboxy-4-(17-carboxyheptadecanoylamino)butanoyl]-[Ala1,Gly2,Ser3,Leu4,Ser5,Ala7,Gln8,Glu14,His17,Asp21,Pro22,Pro27,Asp31,Pro34,Asp35,Pro37]-human amylin] ({C18 diacid-γGlu}-AGSLSTAQTQRLAEFLHHSSDPFGAIPSSTDVGPDTP-NH2) | 1.44 pM | 1.49 pM |
| CC[C@H](C)[C@H](NC(=O)[C@@H]1CCCN1C(=O)CNC(=O)[C@H](Cc1ccccc1)NC(=O)[C@H](CC(N)=O)NC(=O)[C@H](CC(=O)O)NC(=O)[C@H](CO)NC(=O)[C@H](CO)NC(=O)[C@H](Cc1c[nH]cn1)NC(=O)[C@H](Cc1c[nH]cn1)NC(=O)[C@H](CC(C)C)NC(=O)[C@H](Cc1ccccc1)NC(=O)[C@H](CCC(=O)O)NC(=O)[C@H](C)NC(=O)[C@H](CC(C)C)NC(=O)[C@H](CCCNC(=N)N)NC(=O)[C@H](C)NC(=O)[C@@H](NC(=O)[C@H](CCC(N)=O)NC(=O)[C@H](C)NC(=O)[C@@H](NC(=O)[C@H](CO)NC(=O)[C@H](CC(C)C)NC(=O)[C@H](Cc1c[nH]cn1)NC(=O)[C@H](CO)NC(=O)[C@H](C)NC(=O)CC[C@H](NC(=O)CCCCCCCCCCCCCCCCC(=O)O)C(=O)O)[C@@H](C)O)[C@@H](C)O)C(=O)N[C@@H](CC(C)C)C(=O)N1CCC[C@H]1C(=O)N1CCC[C@H]1C(=O)N[C@H](C(=O)N[C@@H](CC(=O)O)C(=O)N[C@H](C(=O)NCC(=O)N[C@@H](CO)C(=O)N[C@@H](CC(N)=O)C(=O)N[C@H](C(=O)N1CCC[C@H]1C(N)=O)[C@@H](C)O)C(C)C)[C@@H](C)O [Compound 14, N^1-[(4S)-4-carboxy-4-(17-carboxyheptadecanoylamino)butanoyl]-[Ala1,Ser2,His3,Leu4,Ser5,Ala7,Gln8,Ala10,Glu14,His17,Asp21,Pro25,Pro28,Pro29,Asp31,Pro37]-human amylin] ({C18 diacid-γGlu}-ASHLSTAQTARLAEFLHHSSDNFGPILPPTDVGSNTP-NH2) | 1.28 pM | 1.63 pM |
| CC[C@H](C)[C@H](NC(=O)[C@@H]1CCCN1C(=O)CNC(=O)[C@H](Cc1ccccc1)NC(=O)[C@H](Cc1c[nH]cn1)NC(=O)[C@H](Cc1c[nH]cn1)NC(=O)[C@H](CC(C)C)NC(=O)[C@H](Cc1ccccc1)NC(=O)[C@H](CCC(=O)O)NC(=O)[C@H](C)NC(=O)[C@H](CC(C)C)NC(=O)[C@H](CCCNC(=N)N)NC(=O)[C@H](C)NC(=O)[C@@H](NC(=O)[C@H](CCC(N)=O)NC(=O)[C@H](C)NC(=O)[C@@H](NC(=O)[C@H](CO)NC(=O)[C@H](CC(C)C)NC(=O)[C@H](CCC(=O)O)NC(=O)CNC(=O)[C@H](C)NC(=O)CC[C@H](NC(=O)CCCCCCCCCCCCCCCCC(=O)O)C(=O)O)[C@@H](C)O)[C@@H](C)O)C(=O)N[C@@H](CC(C)C)C(=O)N1CCC[C@H]1C(=O)N1CCC[C@H]1C(=O)N[C@H](C(=O)N[C@@H](CC(=O)O)C(=O)N[C@H](C(=O)NCC(=O)N[C@@H](CO)C(=O)N[C@@H](CCC(=O)O)C(=O)N[C@H](C(=O)N1CCC[C@H]1C(N)=O)[C@@H](C)O)C(C)C)[C@@H](C)O [Compound 16, N^1-[(4S)-4-carboxy-4-(17-carboxyheptadecanoylamino)butanoyl]-[Ala1,Gly2,Glu3,Leu4,Ser5,Ala7,Gln8,Ala10,Glu14,His17,Pro25,Pro28,Pro29,Asp31,Glu35,Pro37],des-(19-22)-human amylin] ({C18 diacid-γGlu}-AGELSTAQTARLAEFLHHFGPILPPTDVGSETP-NH2) | 1.25 pM | 1.03 pM |
| CC[C@H](C)[C@H](NC(=O)[C@@H]1CCCN1C(=O)CNC(=O)[C@H](Cc1ccccc1)NC(=O)[C@H](Cc1c[nH]cn1)NC(=O)[C@H](Cc1c[nH]cn1)NC(=O)[C@H](CC(C)C)NC(=O)[C@H](Cc1ccccc1)NC(=O)[C@H](CCC(=O)O)NC(=O)[C@H](C)NC(=O)[C@H](CC(C)C)NC(=O)[C@H](CCCNC(=N)N)NC(=O)[C@H](C)NC(=O)[C@@H](NC(=O)[C@H](CCC(N)=O)NC(=O)[C@H](C)NC(=O)[C@@H](NC(=O)[C@H](CO)NC(=O)[C@H](CC(C)C)NC(=O)[C@H](Cc1c[nH]cn1)NC(=O)[C@H](CO)NC(=O)[C@H](C)NC(=O)CC[C@H](NC(=O)CC[C@H](NC(=O)CCCCCCCCCCCCCCCCC(=O)O)C(=O)O)C(=O)O)[C@@H](C)O)[C@@H](C)O)C(=O)N[C@@H](CC(C)C)C(=O)N1CCC[C@H]1C(=O)N1CCC[C@H]1C(=O)N[C@H](C(=O)N[C@@H](CC(=O)O)C(=O)N[C@H](C(=O)NCC(=O)N[C@@H](CO)C(=O)N[C@@H](CCC(=O)O)C(=O)N[C@H](C(=O)N1CCC[C@H]1C(N)=O)[C@@H](C)O)C(C)C)[C@@H](C)O [Compound 17, N^1-[(4S)-4-carboxy-4-[[(4S)-4-carboxy-4-(17-carboxyheptadecanoylamino)butanoyl]amino]butanoyl]-[Ala1,Ser2,His3,Leu4,Ser5,Ala7,Gln8,Ala10,Glu14,His17,Pro25,Pro28,Pro29,Asp31,Glu35,Pro37],des-(19-22)-human amylin] ({C18 diacid-γGlu-γGlu}-ASHLSTAQTARLAEFLHHFGPILPPTDVGSETP-NH2) | 1.11 pM | 1.15 pM |
